Measurements published in ChEMBL document CHEMBL4507291 (2021).

Key:
[1] = molecular target: Atypical kinase COQ8B, mitochondrial (Homo sapiens) (UniProt Q96D53)
[2] = molecular target: Cyclin-G-associated kinase (Homo sapiens) (UniProt O14976)
[3] = molecular target: BMP-2-inducible protein kinase (Homo sapiens) (UniProt Q9NSY1)
[4] = test system: Mast/stem cell growth factor receptor Kit (Homo sapiens), P10721 [V559D,V654A]
[5] = molecular target: Bone morphogenetic protein receptor type-1B (Homo sapiens) (UniProt O00238)
[6] = test system: ALK tyrosine kinase receptor (Homo sapiens), Q9UM73 [C1156Y]
[7] = molecular target: Proto-oncogene tyrosine-protein kinase Src (Homo sapiens) (UniProt P12931)
[8] = molecular target: Serine/threonine-protein kinase LATS1 (Homo sapiens) (UniProt O95835)
[9] = molecular target: Tyrosine-protein kinase CSK (Homo sapiens) (UniProt P41240)
[10] = molecular target: Serine/threonine-protein kinase PLK4 (Homo sapiens) (UniProt O00444)
[11] = molecular target: Mitogen-activated protein kinase 11 (Homo sapiens) (UniProt Q15759)
[12] = molecular target: T1, Mitogen-activated protein kinase kinase kinase kinase 2 (Homo sapiens) (UniProt Q12851)
T1 sequence (whole entry): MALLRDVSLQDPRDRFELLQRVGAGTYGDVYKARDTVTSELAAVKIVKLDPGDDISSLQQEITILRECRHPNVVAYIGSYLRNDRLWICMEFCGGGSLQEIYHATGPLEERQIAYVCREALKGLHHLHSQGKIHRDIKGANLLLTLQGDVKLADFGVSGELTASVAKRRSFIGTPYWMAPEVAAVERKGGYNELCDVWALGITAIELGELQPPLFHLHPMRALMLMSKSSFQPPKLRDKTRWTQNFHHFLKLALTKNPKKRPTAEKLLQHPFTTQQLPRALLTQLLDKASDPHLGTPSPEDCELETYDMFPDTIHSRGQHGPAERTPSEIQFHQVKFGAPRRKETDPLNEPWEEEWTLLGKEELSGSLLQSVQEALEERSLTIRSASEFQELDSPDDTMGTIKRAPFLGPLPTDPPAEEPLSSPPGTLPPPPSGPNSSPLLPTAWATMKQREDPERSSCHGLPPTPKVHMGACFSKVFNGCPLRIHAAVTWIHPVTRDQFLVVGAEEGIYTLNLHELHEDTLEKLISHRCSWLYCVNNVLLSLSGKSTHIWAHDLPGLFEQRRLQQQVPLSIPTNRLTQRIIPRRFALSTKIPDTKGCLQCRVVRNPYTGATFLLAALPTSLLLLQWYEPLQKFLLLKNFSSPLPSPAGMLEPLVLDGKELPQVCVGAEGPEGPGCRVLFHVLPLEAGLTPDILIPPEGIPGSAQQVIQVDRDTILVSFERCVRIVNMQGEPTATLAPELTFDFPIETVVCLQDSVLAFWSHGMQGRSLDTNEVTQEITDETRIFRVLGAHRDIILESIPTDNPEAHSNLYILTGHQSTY

[13] = test system: Phosphatidylinositol 4,5-bisphosphate 3-kinase catalytic subunit alpha isoform (Homo sapiens), P42336 [M1043I]
[14] = molecular target: Cyclin-dependent kinase 2 (Homo sapiens) (UniProt P24941)
[15] = molecular target: Receptor tyrosine-protein kinase erbB-3 (Homo sapiens) (UniProt P21860)
[16] = molecular target: Leukocyte tyrosine kinase receptor (Homo sapiens) (UniProt P29376)
[17] = molecular target: Mitogen-activated protein kinase kinase kinase kinase 1 (Homo sapiens) (UniProt Q92918)
[18] = molecular target: T2, Tyrosine-protein kinase ZAP-70 (Homo sapiens) (UniProt P43403)
T2 sequence (whole entry): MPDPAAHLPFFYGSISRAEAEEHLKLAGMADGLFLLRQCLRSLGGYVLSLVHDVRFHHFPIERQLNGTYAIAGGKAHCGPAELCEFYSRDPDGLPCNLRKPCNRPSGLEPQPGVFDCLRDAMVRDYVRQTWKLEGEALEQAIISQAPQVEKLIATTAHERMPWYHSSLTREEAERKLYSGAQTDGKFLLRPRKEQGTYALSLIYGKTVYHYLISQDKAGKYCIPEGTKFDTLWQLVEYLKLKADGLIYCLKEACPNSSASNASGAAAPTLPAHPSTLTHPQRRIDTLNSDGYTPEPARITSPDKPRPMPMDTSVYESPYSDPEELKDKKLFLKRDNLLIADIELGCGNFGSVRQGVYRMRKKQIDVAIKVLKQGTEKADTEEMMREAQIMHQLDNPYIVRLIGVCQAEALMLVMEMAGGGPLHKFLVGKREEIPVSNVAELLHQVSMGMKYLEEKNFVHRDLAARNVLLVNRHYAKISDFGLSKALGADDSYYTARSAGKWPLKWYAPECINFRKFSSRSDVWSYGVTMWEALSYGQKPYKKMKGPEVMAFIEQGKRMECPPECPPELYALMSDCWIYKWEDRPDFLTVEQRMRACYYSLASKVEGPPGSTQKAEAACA

[19] = molecular target: Serine/threonine-protein kinase tousled-like 2 (Homo sapiens) (UniProt Q86UE8)
[20] = molecular target: Serine/threonine-protein kinase 16 (Homo sapiens) (UniProt O75716)
[21] = molecular target: Serine/threonine-protein kinase TNNI3K (Homo sapiens) (UniProt Q59H18)
[22] = molecular target: 5-hydroxytryptamine receptor 2A (Homo sapiens) (UniProt P28223); details: Compound concentration 10.0 uM
[23] = molecular target: Ephrin type-A receptor 4 (Homo sapiens) (UniProt P54764)
[24] = molecular target: cAMP-dependent protein kinase catalytic subunit alpha (Homo sapiens) (UniProt P17612)
[25] = molecular target: Phosphatidylinositol 5-phosphate 4-kinase type-2 gamma (Homo sapiens) (UniProt Q8TBX8)
[26] = Compound concentration 100.0 nM
[27] = Compound concentration 1000.0 nM

Sequence of Proto-oncogene tyrosine-protein kinase Src (Homo sapiens) (P12931 2-536 limits assumed): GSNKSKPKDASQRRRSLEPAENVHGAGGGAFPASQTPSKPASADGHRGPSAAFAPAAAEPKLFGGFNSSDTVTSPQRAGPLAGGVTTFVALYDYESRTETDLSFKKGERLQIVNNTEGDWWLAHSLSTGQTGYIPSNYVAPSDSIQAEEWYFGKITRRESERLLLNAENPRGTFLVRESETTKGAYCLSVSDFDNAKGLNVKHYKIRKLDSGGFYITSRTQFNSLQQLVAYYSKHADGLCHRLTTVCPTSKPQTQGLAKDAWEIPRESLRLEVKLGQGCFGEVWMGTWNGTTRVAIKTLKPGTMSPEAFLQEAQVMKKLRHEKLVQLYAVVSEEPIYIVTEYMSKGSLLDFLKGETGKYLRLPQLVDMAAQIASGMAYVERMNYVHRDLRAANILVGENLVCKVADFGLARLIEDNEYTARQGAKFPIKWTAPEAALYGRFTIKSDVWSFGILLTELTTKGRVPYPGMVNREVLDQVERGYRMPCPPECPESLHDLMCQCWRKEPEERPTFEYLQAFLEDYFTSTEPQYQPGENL
Sequence of Serine/threonine-protein kinase 16 (Homo sapiens) (O75716 whole entry): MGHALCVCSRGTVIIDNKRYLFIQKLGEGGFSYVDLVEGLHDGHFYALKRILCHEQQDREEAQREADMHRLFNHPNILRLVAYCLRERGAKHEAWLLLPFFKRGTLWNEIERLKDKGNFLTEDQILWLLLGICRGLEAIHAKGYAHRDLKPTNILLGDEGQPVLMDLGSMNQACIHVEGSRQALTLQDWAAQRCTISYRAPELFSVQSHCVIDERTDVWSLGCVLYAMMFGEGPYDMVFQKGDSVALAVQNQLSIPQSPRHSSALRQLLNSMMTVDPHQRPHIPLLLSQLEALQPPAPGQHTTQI
Sequence of Phosphatidylinositol 5-phosphate 4-kinase type-2 gamma (Homo sapiens) (Q8TBX8 whole entry): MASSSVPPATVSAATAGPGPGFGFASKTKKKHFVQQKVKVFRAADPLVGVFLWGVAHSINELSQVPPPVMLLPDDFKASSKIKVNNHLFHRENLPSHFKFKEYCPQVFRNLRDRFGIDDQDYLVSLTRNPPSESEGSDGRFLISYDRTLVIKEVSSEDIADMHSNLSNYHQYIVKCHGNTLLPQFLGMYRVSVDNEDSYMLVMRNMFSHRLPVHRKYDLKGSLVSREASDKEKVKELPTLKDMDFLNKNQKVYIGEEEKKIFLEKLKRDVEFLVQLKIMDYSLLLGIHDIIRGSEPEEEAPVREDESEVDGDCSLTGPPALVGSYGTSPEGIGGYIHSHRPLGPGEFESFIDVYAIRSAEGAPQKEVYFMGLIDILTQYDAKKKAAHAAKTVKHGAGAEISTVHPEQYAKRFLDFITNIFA
Sequence of Serine/threonine-protein kinase PLK4 (Homo sapiens) (O00444 whole entry): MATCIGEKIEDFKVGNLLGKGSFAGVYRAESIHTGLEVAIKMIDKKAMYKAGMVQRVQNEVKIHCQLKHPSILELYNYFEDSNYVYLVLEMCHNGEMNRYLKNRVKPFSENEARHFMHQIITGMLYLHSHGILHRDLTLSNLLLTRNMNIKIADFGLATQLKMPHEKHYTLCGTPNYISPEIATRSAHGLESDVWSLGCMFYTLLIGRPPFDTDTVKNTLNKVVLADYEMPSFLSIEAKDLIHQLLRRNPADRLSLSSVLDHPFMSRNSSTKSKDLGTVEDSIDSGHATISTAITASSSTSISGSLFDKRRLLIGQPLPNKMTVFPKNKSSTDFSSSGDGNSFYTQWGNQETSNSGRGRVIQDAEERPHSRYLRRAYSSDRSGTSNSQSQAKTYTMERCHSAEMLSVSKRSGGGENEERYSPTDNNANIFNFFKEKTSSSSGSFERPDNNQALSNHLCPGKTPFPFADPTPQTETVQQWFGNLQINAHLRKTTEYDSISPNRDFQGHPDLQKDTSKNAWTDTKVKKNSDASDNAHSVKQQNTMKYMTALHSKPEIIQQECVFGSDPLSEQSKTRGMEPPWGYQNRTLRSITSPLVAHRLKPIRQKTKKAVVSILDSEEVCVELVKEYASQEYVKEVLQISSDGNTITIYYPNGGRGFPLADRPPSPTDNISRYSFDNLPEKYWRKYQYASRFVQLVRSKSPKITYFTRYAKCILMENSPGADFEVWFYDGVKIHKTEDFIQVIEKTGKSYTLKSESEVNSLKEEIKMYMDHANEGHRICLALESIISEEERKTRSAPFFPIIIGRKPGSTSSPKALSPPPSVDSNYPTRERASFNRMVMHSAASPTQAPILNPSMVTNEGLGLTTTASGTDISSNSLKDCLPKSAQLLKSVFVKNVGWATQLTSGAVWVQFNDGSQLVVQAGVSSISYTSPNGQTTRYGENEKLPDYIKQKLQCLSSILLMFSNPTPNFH
Sequence of Mitogen-activated protein kinase 11 (Homo sapiens) (Q15759 whole entry): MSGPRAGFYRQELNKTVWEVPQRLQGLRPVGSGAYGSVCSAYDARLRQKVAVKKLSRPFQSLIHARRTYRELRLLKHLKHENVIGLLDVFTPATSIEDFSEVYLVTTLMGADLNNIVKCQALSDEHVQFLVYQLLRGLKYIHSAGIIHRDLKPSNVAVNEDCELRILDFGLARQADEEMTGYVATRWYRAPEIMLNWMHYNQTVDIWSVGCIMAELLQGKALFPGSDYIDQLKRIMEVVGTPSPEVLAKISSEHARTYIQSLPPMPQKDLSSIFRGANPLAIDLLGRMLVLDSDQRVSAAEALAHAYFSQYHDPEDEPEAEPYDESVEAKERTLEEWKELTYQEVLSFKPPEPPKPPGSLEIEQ
Sequence of Atypical kinase COQ8B, mitochondrial (Homo sapiens) (Q96D53 whole entry): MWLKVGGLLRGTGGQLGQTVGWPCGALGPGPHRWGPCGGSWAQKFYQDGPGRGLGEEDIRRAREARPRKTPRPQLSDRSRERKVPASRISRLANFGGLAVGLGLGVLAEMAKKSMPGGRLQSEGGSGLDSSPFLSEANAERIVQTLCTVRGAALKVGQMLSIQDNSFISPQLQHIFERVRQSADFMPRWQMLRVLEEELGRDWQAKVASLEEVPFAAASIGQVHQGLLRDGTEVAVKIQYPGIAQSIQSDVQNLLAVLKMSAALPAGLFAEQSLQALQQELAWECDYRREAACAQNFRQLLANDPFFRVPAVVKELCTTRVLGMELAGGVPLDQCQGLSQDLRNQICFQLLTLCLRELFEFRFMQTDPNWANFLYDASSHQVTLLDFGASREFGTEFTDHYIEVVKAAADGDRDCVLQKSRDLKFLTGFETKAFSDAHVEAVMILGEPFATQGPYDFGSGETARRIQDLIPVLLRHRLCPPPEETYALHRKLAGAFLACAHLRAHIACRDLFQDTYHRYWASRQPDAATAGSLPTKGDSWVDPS
Sequence of Mast/stem cell growth factor receptor Kit (Homo sapiens), P10721 [V559D,V654A] (P10721 whole entry V559D/V654A): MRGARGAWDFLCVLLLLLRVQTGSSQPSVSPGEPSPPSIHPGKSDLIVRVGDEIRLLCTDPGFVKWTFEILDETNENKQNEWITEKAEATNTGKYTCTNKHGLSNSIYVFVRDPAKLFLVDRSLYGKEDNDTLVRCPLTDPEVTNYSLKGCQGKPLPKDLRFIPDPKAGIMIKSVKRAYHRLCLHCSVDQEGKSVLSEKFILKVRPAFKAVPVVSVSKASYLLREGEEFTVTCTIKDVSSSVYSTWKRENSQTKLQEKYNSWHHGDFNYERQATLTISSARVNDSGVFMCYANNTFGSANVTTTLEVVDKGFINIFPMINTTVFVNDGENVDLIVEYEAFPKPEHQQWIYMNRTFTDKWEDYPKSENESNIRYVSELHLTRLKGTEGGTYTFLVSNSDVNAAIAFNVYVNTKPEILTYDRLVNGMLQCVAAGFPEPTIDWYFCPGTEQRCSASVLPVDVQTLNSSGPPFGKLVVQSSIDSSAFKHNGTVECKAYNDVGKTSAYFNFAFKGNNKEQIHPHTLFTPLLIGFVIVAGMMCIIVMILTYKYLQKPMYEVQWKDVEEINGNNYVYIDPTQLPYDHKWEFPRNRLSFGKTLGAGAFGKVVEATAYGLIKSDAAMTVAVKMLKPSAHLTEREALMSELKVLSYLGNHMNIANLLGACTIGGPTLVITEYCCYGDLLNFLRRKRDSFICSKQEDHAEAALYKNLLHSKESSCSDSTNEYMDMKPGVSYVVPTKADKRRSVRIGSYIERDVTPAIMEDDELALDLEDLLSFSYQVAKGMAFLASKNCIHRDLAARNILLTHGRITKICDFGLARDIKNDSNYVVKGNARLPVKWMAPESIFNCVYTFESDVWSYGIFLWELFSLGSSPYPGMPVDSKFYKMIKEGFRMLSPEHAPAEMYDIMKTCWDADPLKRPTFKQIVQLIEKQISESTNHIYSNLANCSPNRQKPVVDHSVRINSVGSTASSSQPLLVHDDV
Sequence of Serine/threonine-protein kinase tousled-like 2 (Homo sapiens) (Q86UE8 whole entry, looked up): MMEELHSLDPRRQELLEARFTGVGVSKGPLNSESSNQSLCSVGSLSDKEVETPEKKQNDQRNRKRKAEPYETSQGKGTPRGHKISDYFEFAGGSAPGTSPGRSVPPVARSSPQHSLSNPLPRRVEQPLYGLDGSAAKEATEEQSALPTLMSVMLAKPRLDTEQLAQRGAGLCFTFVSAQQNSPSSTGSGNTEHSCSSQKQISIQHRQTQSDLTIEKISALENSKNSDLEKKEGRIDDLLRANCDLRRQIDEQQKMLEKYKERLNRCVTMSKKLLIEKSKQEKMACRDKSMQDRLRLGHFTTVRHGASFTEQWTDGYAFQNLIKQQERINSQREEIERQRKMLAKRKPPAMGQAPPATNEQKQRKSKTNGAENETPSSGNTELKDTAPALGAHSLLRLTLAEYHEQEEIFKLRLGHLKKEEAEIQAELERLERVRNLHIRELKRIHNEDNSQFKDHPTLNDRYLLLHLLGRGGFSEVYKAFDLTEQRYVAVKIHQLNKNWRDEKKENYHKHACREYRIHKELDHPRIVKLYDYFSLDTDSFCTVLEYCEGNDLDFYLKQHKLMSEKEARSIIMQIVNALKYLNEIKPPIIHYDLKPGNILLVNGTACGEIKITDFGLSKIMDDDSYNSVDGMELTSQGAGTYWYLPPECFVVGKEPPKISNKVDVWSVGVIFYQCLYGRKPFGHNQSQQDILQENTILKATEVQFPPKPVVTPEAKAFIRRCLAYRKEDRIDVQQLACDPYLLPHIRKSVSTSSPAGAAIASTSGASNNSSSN

C[C@@H]1CN(c2cc(-c3n[nH]c4ccc(OC5(C)CC5)cc34)ncn2)C[C@H](C)O1 [MLi-2]
inactive: residual activity [1, 26] 72% | residual activity [2, 26] 86% | residual activity [3, 26] 100% | residual activity [4, 26] 100% | residual activity [5, 26] 81% | residual activity [6, 26] 89% | residual activity [7, 26] 81% | residual activity [8, 26] 96% | residual activity [9, 26] 100% | residual activity [10, 26] 71% | residual activity [11, 26] 89% | residual activity [12, 26] 76% | residual activity [13, 26] 82% | residual activity [14, 26] 96% | residual activity [15, 26] 100% | residual activity [16, 26] 84% | residual activity [17, 26] 84% | residual activity [18, 26] 83% | residual activity [19, 26] 100% | residual activity [20, 26] 100% | residual activity [21, 26] 78% | inhibition [22] 2.75% | residual activity [23, 26] 89% | residual activity [24, 26] 85% | residual activity [25, 26] 90%

C[C@@H]1CN(c2cc(-c3nn(C)c4ccc(OC5(C)CC5)cc34)ncn2)C[C@H](C)O1 [MLi-2-NC]
inactive: residual activity [1, 27] 100% | residual activity [2, 27] 86% | residual activity [3, 27] 100% | residual activity [4, 27] 100% | residual activity [5, 27] 77% | residual activity [6, 27] 82% | residual activity [7, 27] 100% | residual activity [8, 27] 100% | residual activity [9, 27] 100% | residual activity [10, 27] 65% | residual activity [11, 27] 88% | residual activity [12, 27] 81% | residual activity [13, 27] 96% | residual activity [14, 27] 73% | residual activity [15, 27] 57% | residual activity [16, 27] 100% | residual activity [17, 27] 100% | residual activity [18, 27] 100% | residual activity [19, 27] 97% | residual activity [20, 27] 100% | residual activity [21, 27] 71% | inhibition [22] 3.31% | residual activity [23, 27] 100% | residual activity [24, 27] 95% | residual activity [25, 27] 98%
